Assay results published in patent US20210196720A1 (UROVANT SCIENCES GMBH, priority 2018, published 2021).
Where “and” joins values, the source holds several entries; their conditions need not be identical. Identical values can stand only once. Like-named read-outs stand apart in the source and are kept apart here.

How the values were obtained:
[1] = Single rising oral dose Phase 1 PK, healthy adults (young males unless stated); assay type: in vivo, human; details: for AUC(0-inf) / Cmax / AUC(0-t) / half-life: male, human, plasma, oral; for AUC(0-t): read-out: AUC0-24
Description: The steady state AUC geometric mean accumulation ratios were ˜2 in young male subjects and ˜2.8 in elderly subjects (male and female).
All subjects were healthy adults. […] Systemic exposures were greater than dose proportional up to 600 mg.
Although exposures were similar in middle-aged males when compared to young males, plasma concentrations were higher in elderly compared to middle-aged and young subjects. […] Furthermore, the steady state AUC geometric mean accumulation ratios were ˜2 in young males and ˜2.8 in the elderly.

[2] = Phase 1 safety data; assay type: in vivo; details: Phase 1, single 2-600 mg, multiple 25-400 mg
Description: Safety data from 16 Phase 1 studies, which include 15 completed Phase 1 studies and 1 study that was terminated early (this study was terminated for reasons unrelated to efficacy or safety) was collected.

[3] = target: CYP3A4 (Homo sapiens, UniProt P08684); test: In vitro CYP metabolism; assay type: in vitro ADME
Sequence of CYP3A4 (P08684 whole entry): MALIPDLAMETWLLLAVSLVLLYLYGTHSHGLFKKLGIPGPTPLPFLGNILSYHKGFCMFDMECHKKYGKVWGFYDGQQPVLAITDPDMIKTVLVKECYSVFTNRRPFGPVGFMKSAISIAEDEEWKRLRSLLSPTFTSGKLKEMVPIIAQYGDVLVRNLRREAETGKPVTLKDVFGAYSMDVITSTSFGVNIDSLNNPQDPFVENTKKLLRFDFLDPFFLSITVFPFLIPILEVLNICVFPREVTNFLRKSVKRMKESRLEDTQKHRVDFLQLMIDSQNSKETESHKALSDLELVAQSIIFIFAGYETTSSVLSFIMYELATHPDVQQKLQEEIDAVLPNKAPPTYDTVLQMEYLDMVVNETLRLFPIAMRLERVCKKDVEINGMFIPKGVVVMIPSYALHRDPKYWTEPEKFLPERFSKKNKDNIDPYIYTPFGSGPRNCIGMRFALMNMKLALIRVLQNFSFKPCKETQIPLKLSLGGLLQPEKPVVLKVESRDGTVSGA

[4] = Phase 2b OAB study, cardiovascular safety (HR, SBP, DBP, orthostatic AEs); assay type: in vivo, human
Excerpt: None led to discontinuation. The overall incidence of orthostatic symptoms was low.
Small differences in the percent of subjects exceeding categorical heart rate and blood pressure thresholds for vibegron were similar to those in the tolterodine arm.

[5] = Maximum MA4 heart rate, multiple-dose Phase 1 study, day 14; assay type: in vivo, human
Description: More intensive assessments of heart rate and blood pressure were performed in healthy volunteers in several Phase 1 studies. […] Doses ranged from 25 to 400 mg once daily for 7 to 28 days depending on the cohort. Least squares mean and 90% confidence intervals of maximum change from baseline in moving average of heart rate over 4 hours postdose (MA4 HR) are presented in Table 14.

[6] = target: CYP2D6 (Homo sapiens, UniProt P10635); details: Rutman et al. 2019; cited from earlier work
Sequence of CYP2D6 (P10635 whole entry): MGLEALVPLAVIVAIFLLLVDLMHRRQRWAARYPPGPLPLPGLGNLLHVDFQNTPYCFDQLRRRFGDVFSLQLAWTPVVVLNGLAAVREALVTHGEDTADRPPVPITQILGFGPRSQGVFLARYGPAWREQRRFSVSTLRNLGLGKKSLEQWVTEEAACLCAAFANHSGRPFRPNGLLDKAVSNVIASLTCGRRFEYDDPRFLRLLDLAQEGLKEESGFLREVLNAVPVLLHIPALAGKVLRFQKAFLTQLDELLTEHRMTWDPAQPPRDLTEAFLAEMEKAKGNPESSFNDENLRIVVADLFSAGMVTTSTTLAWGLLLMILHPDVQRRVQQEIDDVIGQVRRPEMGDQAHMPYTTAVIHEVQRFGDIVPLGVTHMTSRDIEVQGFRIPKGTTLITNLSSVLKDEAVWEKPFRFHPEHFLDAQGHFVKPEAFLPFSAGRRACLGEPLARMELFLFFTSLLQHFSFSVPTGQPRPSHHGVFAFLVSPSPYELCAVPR

[7] = clinical; details: human, 100 mg
Description: The relationship between clearance and renal function was modeled using linear regression.

For O=C(Nc1ccc(C[C@@H]2CC[C@H]([C@H](O)c3ccccc3)N2)cc1)[C@@H]1CCc2nccc(=O)n21 [Vibegron, (6S)-N-[4-[[(2S,5R)-5-[(R)-hydroxy(phenyl)methyl]pyrrolidin-2-yl]methyl]phenyl]-4-oxo-7,8-dihydro-6H-pyrrolo[1,2-a]pyrimidine-6-carboxamide], the AUC(0-inf) ([1]; 450 mg, single 450 mg) was 9160 ± 1850 ng·h/mL, the Cmax ([1]; 450 mg, single 450 mg) was 645 ± 165 ng/mL and the AUC(0-t) ([1]; 450 mg, single 450 mg) was 5510 ± 1440 ng·h/mL. For the same compound, the half-life ([1]; 450 mg, single 450 mg, read-out: t1/2 (converted)) was 60 ± 9.4 h, the AUC(0-inf) ([1]; 600 mg, single 600 mg) was 15500 ± 3450 ng·h/mL and the Cmax ([1]; 600 mg, single 600 mg) was 1330 ± 529 ng/mL. The AUC(0-t) ([1]; 600 mg, single 600 mg) was 10900 ± 2770 ng·h/mL, the half-life ([1]; 600 mg, single 600 mg, read-out: t1/2 (converted)) was 60.5 ± 5.2 h and the half-life ([1]; 10 to 600 mg, healthy young males, read-out: terminal elimination t1/2) was 43 to 75 h. For the same compound, the half-life ([1]; Japanese subjects, read-out: harmonic mean apparent terminal t1/2) was 58 to 71 h, the “AUC0-inf higher in elderly than young males” value ([1]; single 50 mg) was ~70% and the “Cmax higher in elderly than young males” value ([1]; single 50 mg) was 60%. For the same compound, the t1/2 ([1]; single 50 mg) was 52 h and 52.0 ± 7.8 h, the t1/2 ([1]; single 50 mg, elderly male and female) was 92 h and 92.1 ± 15.9 h and the “exposure increase, Japanese vs non-Japanese young males” value ([1]; single dose) was < 2 fold. For the same compound, the tolerability [2] was “generally well tolerated”, the “CYP responsible for in vitro metabolism” value [3] was “CYP3A4 is the predominant CYP responsible for in vitro metabolism” and the “DBP change from baseline, mean (95% CI) max, week 1 to 8” value (“DBP change … (95% CI) max, week 1 to 8” for short) ([4]; 3 mg) was 5.03 (3.92, 6.15) mm Hg. The “DBP change from baseline, mean (95% CI), week 1” value (“DBP change … (95% CI), week 1” below) ([4]; 3 mg) was −0.37 (−1.69, 0.95) mm Hg, the “HR change from baseline, mean (95% CI) maximum, week 1 to 8” value (from here on “HR change … (95% CI) maximum, week 1 to 8”) ([4]; 3 mg) was 5.57 (4.25, 6.90) bpm and the “HR change from baseline, mean (95% CI), week 1” value (shortened to “HR change … (95% CI), week 1”) ([4]; 3 mg) was 0.36 (−0.90, 1.62) bpm. For the same compound, the “SBP change from baseline, mean (95% CI) maximum, week 1 to 8” value (shortened to “SBP change … (95% CI) maximum, week 1 to 8”) ([4]; 3 mg) was 7.14 (5.18, 9.10) mm Hg, the “SBP change from baseline, mean (95% CI), week 1” value (“SBP change … (95% CI), week 1” for short) ([4]; 3 mg) was −0.35 (−2.34, 1.65) mm Hg and the “DBP change … (95% CI) max, week 1 to 8” value ([4]; 15 mg) was 6.37 (5.20, 7.53) mm Hg. The “DBP change … (95% CI), week 1” value ([4]; 15 mg) was 0.03 (−1.52, 1.59) mm Hg, the “HR change … (95% CI) maximum, week 1 to 8” value ([4]; 15 mg) was 6.56 (5.20, 7.92) bpm and the “HR change … (95% CI), week 1” value ([4]; 15 mg) was 0.35 (−1.15, 1.85) bpm. For the same compound, the “SBP change … (95% CI) maximum, week 1 to 8” value ([4]; 15 mg) was 8.93 (7.18, 10.67) mm Hg, the “SBP change … (95% CI), week 1” value ([4]; 15 mg) was −0.34 (−2.46, 1.78) mm Hg and the “subjects with orthostatic related AEs” value ([4]; 15 mg) was 0.3%. The “DBP change … (95% CI) max, week 1 to 8” value ([4]; 50 mg) was 4.19 (3.10, 5.29) mm Hg, the “DBP change … (95% CI), week 1” value ([4]; 50 mg) was −0.70 (−2.07, 0.67) mm Hg and the “HR change … (95% CI) maximum, week 1 to 8” value ([4]; 50 mg) was 5.49 (4.28, 6.69) bpm. For the same compound, the “HR change … (95% CI), week 1” value ([4]; 50 mg) was 0.29 (−0.88, 1.46) bpm, the “SBP change … (95% CI) maximum, week 1 to 8” value ([4]; 50 mg) was 7.01 (5.31, 8.70) mm Hg and the “SBP change … (95% CI), week 1” value ([4]; 50 mg) was −0.79 (−2.65, 1.08) mm Hg. The “SBP and DBP change, difference from placebo” value ([4]; 50 mg and 100 mg, week 1 and maximum over 8 weeks) was < 1 mm Hg, the “DBP change … (95% CI) max, week 1 to 8” value ([4]; 100 mg) was 4.80 (3.88, 5.72) mm Hg and the “DBP change … (95% CI), week 1” value ([4]; 100 mg) was −0.69 (−1.72, 0.34) mm Hg. For the same compound, the “HR change … (95% CI) maximum, week 1 to 8” value ([4]; 100 mg) was 6.12 (5.10, 7.15) bpm, the “HR change … (95% CI), week 1” value ([4]; 100 mg) was 0.35 (−0.69, 1.38) bpm and the “SBP change … (95% CI) maximum, week 1 to 8” value ([4]; 100 mg) was 6.51 (5.09, 7.93) mm Hg. For the same compound, the “SBP change … (95% CI), week 1” value ([4]; 100 mg) was −0.77 (−2.22, 0.68) mm Hg, the “subjects with orthostatic related AEs” value ([4]; 100 mg) was 1.1% and the “HR mean maximum change over 8 weeks, difference from placebo” value ([4]; in vivo) was < 2 bpm. For the same compound, the “Maximum MA4 HR (LS mean)” value ([5]; 25 mg) was 1.47 bpm, the “Maximum MA4 HR, difference from placebo” value ([5]; 25 mg) was −1.60 bpm and the “Maximum MA4 HR (LS mean)” value ([5]; 50 mg) was 1.50 bpm. For the same compound, the “Maximum MA4 HR, difference from placebo” value ([5]; 50 mg) was −1.57 bpm, the “Maximum MA4 HR (LS mean)” value ([5]; 100 mg) was 3.28 bpm and the “Maximum MA4 HR (LS mean)” value ([5]; 150 mg) was 3.17 bpm. For the same compound, the “Maximum MA4 HR, difference from placebo” value ([5]; 150 mg) was 0.10 bpm, the “Maximum MA4 HR (LS mean)” value ([5]; 200 mg) was 5.67 bpm and the “Maximum MA4 HR, difference from placebo” value ([5]; 200 mg) was 2.60 bpm. The “Maximum MA4 HR (LS mean)” value ([5]; 300 mg) was 9.06 bpm, the “Maximum MA4 HR, difference from placebo” value ([5]; 300 mg) was 5.98 bpm and the “Maximum MA4 HR (LS mean)” value ([5]; 400 mg) was 10.33 bpm. The “Maximum MA4 HR, difference from placebo” value ([5]; 400 mg) was 7.26 bpm, the CYP2D6 inhibition [6] was “does not inhibit CYP2D6” and the Cmax ([7]; in vivo) was 107 ng/mL. The Cmax ([7]; plasma, oral) was 152 ng/mL and the half-life ([7]; plasma, oral) was 131 h.
